Data on 21 compounds can be found in patent US9284333B2, “Fused pyrroledicarboxamides and their use as pharmaceuticals” (SANOFI, priority 2012, dated 2016).

Human TASK-1 channels, sequence (O14649 whole entry): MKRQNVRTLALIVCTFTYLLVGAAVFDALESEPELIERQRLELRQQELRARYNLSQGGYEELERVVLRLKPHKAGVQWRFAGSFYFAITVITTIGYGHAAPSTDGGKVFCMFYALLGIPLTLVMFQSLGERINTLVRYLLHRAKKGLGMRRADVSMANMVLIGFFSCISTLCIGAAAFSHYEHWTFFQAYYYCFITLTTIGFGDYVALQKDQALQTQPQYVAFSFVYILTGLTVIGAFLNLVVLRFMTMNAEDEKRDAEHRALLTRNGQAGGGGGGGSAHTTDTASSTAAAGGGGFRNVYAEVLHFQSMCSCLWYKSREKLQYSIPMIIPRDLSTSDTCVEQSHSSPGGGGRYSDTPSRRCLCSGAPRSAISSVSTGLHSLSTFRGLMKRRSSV

The first assay has as its target Human TASK-1 channels (Homo sapiens (Human), UniProt O14649). Briefly: Determination of the activity on the TASK-1 channel in Xenopus oocytes (two-microelectrode voltage clamp). The assay is classed as cell-based. The following applies: compound concentration 5 μM. The procedure, abridged: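 Current during 500 ms pulses to 40 mV from a −90 mV hold was recorded in oocytes expressing human TASK-1 for two days after cRNA injection. Compounds were added cumulatively to the ND96 bath (pH 7.4, room temperature). IC50 came from dose-response fitting of inhibition relative to pre-compound current.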
As for `CC[C@@H](NC(=O)c1cc(C(=O)NCC2(c3ccccc3)CCCC2)n2c1CCCC2)c1ccccc1` [16ng, 5,6,7,8-Tetrahydro-indolizine-1,3-dicarboxylic acid 3-[(1-phenyl-cyclopentylmethyl)-amide] 1-[((R)-1-phenyl-propyl)-amide]], the inhibition at 5 µM is 55%.

Still in this assay, the particulars now being: human TASK-1 expressed in Xenopus oocytes, room temperature; read-out: IC50 value for TASK-1 inhibition.
With `CC[C@@H](NC(=O)c1cc(C(=O)N2CCC[C@@H]2C#N)n2c1COCC2)c1ccccc1` [16fm, 6-((R)-2-Cyano-pyrrolidine-1-carbonyl)-3,4-dihydro-1H-pyrrolo[2,1-c][1,4]oxazine-8-carboxylic acid ((R)-1-phenyl-propyl)-amide], the IC50 was 210 nM. `CC[C@@H](NC(=O)c1cc(C(=O)N[C@H](C)c2ccc(F)cc2)n2c1COCC2)c1ccc(C#N)cc1` [16ec, 3,4-Dihydro-1H-pyrrolo[2,1][1,4]oxazine-6,8-dicarboxylic acid 8-{[(R)-1-(4-cyano-phenyl)-propyl]-amide} 6-{[(R)-1-(4-fluoro-phenyl)-ethyl]-amide}]: the half-maximal inhibitory concentration (IC50) was determined as 600 nM. Same read-out and setting: the result for `CC(NC(=O)c1cc(C(=O)N[C@@H](c2ccc(F)cc2)C(C)C)n2c1COCC2)c1ccno1` (stereo partly drawn) [16lk, 3,4-Dihydro-1H-pyrrolo[2,1-c][1,4]oxazine-6,8-dicarboxylic acid 6-{[(R)-1-(4-fluoro-phenyl)-2-methyl-propyl]-amide} 8-[(1-isoxazol-5-yl-ethyl)-amide]] reads 310 nM; that for `CC[C@@H](NC(=O)c1cc(C(=O)NCc2cnccn2)c2n1CCOC2)c1ccc(F)cc1Cl` [16ko, 3,4-Dihydro-1H-pyrrolo[2,1-c][1,4]oxazine-6,8-dicarboxylic acid 6-{[(R)-1-(2-chloro-4-fluoro-phenyl)-propyl]-amide} 8-[(pyrazin-2-ylmethyl)-amide]], 310 nM; that for `CC[C@@H](NC(=O)c1cc(C(=O)NC(C)c2cnccn2)n2c1COCC2)c1ccccc1` (stereo partly drawn) [16hl, 3,4-Dihydro-1H-pyrrolo[2,1-c][1,4]oxazine-6,8-dicarboxylic acid 8-[((R)-1-phenyl-propyl)-amide] 6-[(1-pyrazin-2-yl-ethyl)-amide]], 170 nM.

For `CC[C@@H](NC(=O)c1cc(C(=O)N2CCC[C@@H]2C)n2c1COCC2)c1ccc(Br)s1` [16bg, 6-((S)-2-methyl-pyrrolidine-1-carbonyl)-3,4-dihydro-1H-pyrrolo[2,1-c][1,4]oxazine-8-carboxylic acid [(R)-1-(5-bromo-thiophen-2-yl)-propyl]-amide], the IC50 amounted to 280 nM.

As for `C[C@@H](NC(=O)c1cc(C(=O)N[C@H](C)c2ccccc2F)c2n1CCOC2)c1ccc(F)cc1` [16dq, 3,4-Dihydro-1H-pyrrolo[2,1-c][1,4]oxazine-6,8-dicarboxylic acid 6-{[(R)-1-(4-fluoro-phenyl)-ethyl]-amide} 8-{[(R)-1-(2-fluoro-phenyl)-ethyl]-amide}], the IC50 turned out to be 220 nM.

As for `CC[C@@H](NC(=O)c1cc(C(=O)N[C@H](C)c2ccc(F)cc2)n2c1COCC2)c1ccc(C(F)(F)F)cc1` [16eb, 3,4-Dihydro-1H-pyrrolo[2,1-c][1,4]oxazine-6,8-dicarboxylic acid 6-{[(R)-1-(4-fluoro-phenyl)-ethyl]-amide} 8-{[(R)-1-(4-trifluoromethyl-phenyl)-propyl]-amide}], the IC50 amounted to 250 nM. The same measure, in the same setting: then `CC[C@@H](NC(=O)c1cc(C(=O)NC(C)c2nnn(C)n2)n2c1COCC2)c1ccccc1` (stereo partly drawn) [16rn, 3,4-Dihydro-1H-pyrrolo[2,1-c][1,4]oxazine-6,8-dicarboxylic acid 6-{[1-(2-methyl-2H-tetrazol-5-yl)-ethyl]-amide} 8-[((R)-1-phenyl-propyl)-amide]], with 180 nM; and `CC[C@@H](NC(=O)c1cc(C(=O)N2CC[C@H](F)C2)n2c1COCC2)c1ccccc1` [16fn, 6-((S)-3-Fluoro-pyrrolidine-1-carbonyl)-3,4-dihydro-1H-pyrrolo[2,1-c][1,4]oxazine-8-carboxylic acid ((R)-1-phenyl-propyl)-amide], with 160 nM; and `CC[C@@H](NC(=O)c1cc(C(=O)N2CCC[C@H]2C)n2c1COCC2)c1ccccc1` [16ej, 6-((R)-2-Methyl-pyrrolidine-1-carbonyl)-3,4-dihydro-1H-pyrrolo[2,1-c][1,4]oxazine-8-carboxylic acid ((R)-1-phenyl-propyl)-amide], with 260 nM. Still for that read-out and setting: then `CC[C@@H](NC(=O)c1cc(C(=O)N2CCC[C@@H]2C)n2c1COCC2)c1ccc(Cl)nc1` [16ar, 6-((S)-2-Methyl-pyrrolidine-1-carbonyl)-3,4-dihydro-1H-pyrrolo[2,1-c][1,4]oxazine-8-carboxylic acid [(R)-1-(6-chloro-pyridin-3-yl)-propyl]-amide], with 440 nM; and `CC[C@@H](NC(=O)c1cc(C(=O)N[C@H](CC)c2cnccn2)n2c1COCC2)c1ccccc1` [16hw, 3,4-Dihydro-1H-pyrrolo[2,1-c][1,4]oxazine-6,8-dicarboxylic acid 8-[((R)-1-phenyl-propyl)-amide] 6-[((R)-1-pyrazin-2-yl-propyl)-amide]], with 360 nM. Still for that read-out and setting: the result for `CC[C@@H](NC(=O)c1cc(C(=O)N2CCC[C@@H]2C)c2n1CSC2)c1ccccc1` [16kx, 7-((S)-2-Methyl-pyrrolidine-1-carbonyl)-1H-pyrrolo[1,2-c]thiazole-5-carboxylic acid ((R)-1-phenyl-propyl)-amide] reads 100 nM; that for `CC[C@@H](NC(=O)c1cc(C(=O)N[C@H](c2ccc(F)cc2)C2CC2)n2c1COCC2)c1ccccc1` [16ik, 3,4-Dihydro-1H-pyrrolo[2,1-c][1,4]oxazine-6,8-dicarboxylic acid 6-{[(S)-cyclopropyl-(4-fluoro-phenyl)-methyl]-amide} 8-[((R)-1-phenyl-propyl)-amide]], 710 nM. Turning to `CC[C@@H](NC(=O)c1cc(C(=O)NCC(CC2CC2)c2ccccc2)n2c1CCCC2)c1ccccc1` (stereo partly drawn) [16na, 5,6,7,8-Tetrahydro-indolizine-1,3-dicarboxylic acid 3-[(3-cyclopropyl-2-phenyl-propyl)-amide] 1-[((R)-1-phenyl-propyl)-amide]], the IC50 was determined as 1700 nM. As to `CC[C@@H](NC(=O)c1cc(C(=O)N[C@H](CC)c2ccccc2)n2c1COCC2)c1ccc(OC)nc1` [16jo, 3,4-Dihydro-1H-pyrrolo[2,1-c][1,4]oxazine-6,8-dicarboxylic acid 8-{[(R)-1-(6-methoxy-pyridin-3-yl)-propyl]-amide} 6-[((R)-1-phenyl-propyl)-amide]], the IC50 is 250 nM. `CC[C@@H](NC(=O)c1cc(C(=O)N2CCN(C)CC2c2ccccc2)n2c1COCC2)c1ccccc1` (stereo partly drawn) [16em, 6-(4-Methyl-2-phenyl-piperazine-1-carbonyl)-3,4-dihydro-1H-pyrrolo[2,1-c][1,4]oxazine-8-carboxylic acid ((R)-1-phenyl-propyl)-amide]: the concentration for half-maximal inhibition (IC50) worked out at 600 nM. On the same count and under the same terms, the result for `CC[C@@H](NC(=O)c1cc(C(=O)Nc2ccc(F)cn2)n2c1COCC2)c1ccccc1` [16hc, 3,4-Dihydro-1H-pyrrolo[2,1-c][1,4]oxazine-6,8-dicarboxylic acid 6-[(5-fluoro-pyridin-2-yl)-amide] 8-[((R)-1-phenyl-propyl)-amide]] reads 180 nM; that for `CC[C@@H](NC(=O)c1cc(C(=O)N2CCC[C@@H]2c2ccc(OC)nc2)n2c1COCC2)c1ccccc1` [16fl, 6-[(R)-2-(6-Methoxy-pyridin-3-yl)-pyrrolidine-1-carbonyl]-3,4-dihydro-1H-pyrrolo[2,1-c][1,4]oxazine-8-carboxylic acid ((R)-1-phenyl-propyl)-amide], 240 nM.
